From the supplement of paper PMC5908809

What was measured:
[1] = test system: normal NK cells expanded with K562-aAPC; assay: drug sensitivity score (DSS) (DSS units); higher = more sensitive; extreme values may be limits of the assay; settings: 72 h; IL-2 2.5 ng/mL
Experimental: (§1)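 Drug sensitivity and resistance testing on K562-aAPC-expanded normal NK cells: 5 concentrations (10-fold steps over a 10,000-fold range), 72 h at 37 °C, viability by CellTiter-Glo normalised to DMSO and benzethonium chloride controls; DSS from the fitted curve.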

[2] = test system: DERL-7 (IL-2 2.5 ng/mL); assay: percent inhibition of viability; higher = more inhibition; settings: 72 h
[3] = test system: normal primary NK cells, pool 1 (3 donors) (IL-2 2.5 ng/mL); assay: as above; settings: 72 h
[4] = test system: NKL (IL-2 2.5 ng/mL); assay: as above; settings: 72 h
[5] = test system: normal primary NK cells, pool 1 (3 donors), resting (IL-2 0 ng/mL); assay: as above; settings: 72 h
[6] = test system: SNK-6 (IL-2 2.5 ng/mL); assay: as above; settings: 72 h
[7] = test system: normal primary NK cells, pool 3 (3 donors) (IL-2 2.5 ng/mL); assay: as above; settings: 72 h
[8] = test system: KAI3 (IL-2 2.5 ng/mL); assay: as above; settings: 72 h
[9] = test system: YT (IL-2 2.5 ng/mL); assay: as above; settings: 72 h
[10] = test system: KHYG-1 (IL-2 2.5 ng/mL); assay: as above; settings: 72 h
[11] = test system: IMC-1 (IL-2 20 ng/mL); assay: as above; settings: 72 h
[12] = test system: NK-YS (IL-2 2.5 ng/mL); assay: as above; settings: 72 h
[13] = test system: normal primary NK cells, pool 2 (3 donors) (IL-2 2.5 ng/mL); assay: as above; settings: 72 h
[14] = test system: NK-92 (IL-2 2.5 ng/mL); assay: as above; settings: 72 h
[15] = test system: normal NK cells expanded with K562-aAPC; assay: as above; settings: 72 h, IL-2 2.5 ng/mL
Experimental: as §1

[16] = test system: DERL-7 (IL-2 2.5 ng/mL); assay: drug sensitivity score (DSS) (DSS units); higher = more sensitive; extreme values may be limits of the assay; settings: 72 h
[17] = test system: normal primary NK cells, pool 1 (3 donors) (IL-2 2.5 ng/mL); assay: as above; settings: 72 h
[18] = test system: NKL (IL-2 2.5 ng/mL); assay: as above; settings: 72 h
[19] = test system: normal primary NK cells, pool 1 (3 donors), resting (IL-2 0 ng/mL); assay: as above; settings: 72 h
[20] = test system: SNK-6 (IL-2 2.5 ng/mL); assay: as above; settings: 72 h
[21] = test system: normal primary NK cells, pool 3 (3 donors) (IL-2 2.5 ng/mL); assay: as above; settings: 72 h
[22] = test system: KAI3 (IL-2 2.5 ng/mL); assay: as above; settings: 72 h
[23] = test system: YT (IL-2 2.5 ng/mL); assay: as above; settings: 72 h
[24] = test system: KHYG-1 (IL-2 2.5 ng/mL); assay: as above; settings: 72 h
[25] = test system: IMC-1 (IL-2 20 ng/mL); assay: as above; settings: 72 h
[26] = test system: NK-YS (IL-2 2.5 ng/mL); assay: as above; settings: 72 h
[27] = test system: normal primary NK cells, pool 2 (3 donors) (IL-2 2.5 ng/mL); assay: as above; settings: 72 h
[28] = test system: NK-92 (IL-2 2.5 ng/mL); assay: as above; settings: 72 h

C[C@@H](Oc1cc(-c2cnn(C3CCNCC3)c2)cnc1N)c1c(Cl)ccc(F)c1Cl [Crizotinib] (max concentration tested 1000 nM)
Settings | drug sensitivity score
[1] | 0.44
[16] | 0.81
[17] | 2.41
[18] | 3.75
[19] | 1.99
[20] | 0
[21] | 0.4
[22] | 1.25
[23] | 1.25
[24] | 0.95
[25] | 0
[26] | 0.12
[27] | 0.49
[28] | 3.72

percent inhibition of viability [%]
Settings | 0.1 nM | 1 nM | 10 nM | 100 nM | 1000 nM
[2] | -0.63 | 5.41 | -1.8 | -2.42 | 25.2
[3] | -4.24 | -0.87 | 8.61 | 7.22 | 32.6
[4] | -3.16 | -3.23 | -5.42 | 9.67 | 43.3
[5] | -6.8 | -15.6 | -1.32 | 0.53 | 39.1
[6] | -16.1 | -28 | -15 | -17.9 | -4.35
[7] | -11.7 | -8.52 | 6.99 | -0.76 | 18
[8] | -4.43 | -13.2 | -10.6 | -0.67 | 30.1
[9] | -0.11 | -5.24 | -1.87 | 2.08 | 25.1
[10] | -1.4 | -6.18 | 0.71 | 2.28 | 20.6
[11] | -4.84 | -8.42 | -0.95 | 5.13 | 7.41
[12] | -6.03 | -14.8 | -8.66 | -7.59 | 15.5
[13] | -7.13 | -11.6 | -1.57 | -2.22 | 20.3
[14] | -12.7 | 0.5 | -4.15 | 16.4 | 34.7
[15] | -7.86 | -6.31 | -9.93 | -2.46 | 19.7
